According to PMC11219766 (Nature Communications, 2024):

These compounds were tested against T1, CIB1 (Homo sapiens, UniProt Q99828) (assay: not given).
T1 sequence (Q99828 whole entry): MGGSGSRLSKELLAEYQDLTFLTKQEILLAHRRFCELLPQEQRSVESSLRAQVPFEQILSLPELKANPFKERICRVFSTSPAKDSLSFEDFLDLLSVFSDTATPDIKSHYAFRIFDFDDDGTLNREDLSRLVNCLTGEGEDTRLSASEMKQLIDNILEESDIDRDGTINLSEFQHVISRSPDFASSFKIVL

Which Hill slope does the source give for COc1cccc(OCCCn2cc(C=C3C(=O)NC(=O)N(Cc4ccco4)C3=O)c3ccccc32)c1 [UNC10245380A, COc1cccc(OCCCn2cc(C=C3C(=O)NC(=O)N(Cc4ccco4)C3=O)c3ccccc23)c1] here?
Its Hill slope is 1.5–2.5.

Each compound was assayed against T1, CIB1 (assay: biochemical).
Source text: Binding of the 56 purchased compounds was experimentally assessed in a time-resolved fluorescence energy transfer (TR-FRET) assay (see Fig. 3A and Supplementary data 1). Briefly, it serves as a displacement assay using an AlexaFluor-labeled cyclic CIB1-binding peptide and a Europium (Eu)-labeled Streptavidin donor for attachment to the AviTag biotinylated CIB1 protein (described previously in Puhl et al. and Haberman et al.[47],[62]).
A CIB1 TR-FRET assay uses an AlexaFluor-labeled cyclic CIB1-binding peptide and a Europium (Eu)-labeled Streptavidin donor for attachment to the AviTag biotinylated CIB1 protein. […] Compounds were dispensed into 384-well plates using a Mosquito HTS nanoliter instrument (TTP LABTech) as 3-fold serial dilutions (100x in DMSO, 0.1 μL) for final concentrations ranging from 100 μM to 0.5 nM. Biotinylated CIB1 was diluted to a final concentration of 3 nM in assay buffer (20 mM) TRIS pH 7.5, 150 mM NaCl, 1 mM CaCl, 1 mM CHAPS, and 1 mM DTT (added fresh each time), and 5 μL of diluted protein was added to the wells of the assay plate using a Multidrop Combi Reagent Dispenser (Thermo Scientific) and incubated at room temperature for 20 min. 5 μL detection solution containing 2 nM Lance Eu-Streptavidin (Perkin Elmer) and 30 nM Alexa647-CIB1-phage peptide diluted in assay buffer was added to the wells and incubated 30–60 min at room temperature protected from light. TR-FRET signals were measured using an Envision Multilabel Plate Reader (PerkinElmer; Eu excitation 320 nm, Eu emission 615 nm, Alexa dye emission 665 nm). […] Inhibition curves were analyzed using a four-parameter non-linear curve fit using ScreenAble software, and the mean and standard deviation were calculated. Publication curves were averaged and fit with a four-parameter non-liner curve fit using GraphPad Prism.

How did the IC50 turn out when O=C(NCc1ccc2c(c1)OCO2)C1CCN(S(=O)(=O)c2cccc3nsnc23)CC1 [UNC10245381A, O=C(NCc1ccc2OCOc2c1)C1CCN(CC1)S(=O)(=O)c1cccc2nsnc12] was run?
The IC50 was 84 µM.

Which IC50 does the source give for CC(c1nnc(SCC(=O)Nc2ccc(Oc3ccccc3)cc2)n1C)N1C(=O)COc2ccccc21 (centres unmarked) [UNC10245386A, CC(N1C(=O)COc2ccccc12)c1nnc(SCC(=O)Nc2ccc(Oc3ccccc3)cc2)n1C] here?
The IC50 was 33 µM.

With CC(c1cc(-c2ccccc2)[nH]n1)N(C)C(=O)C1CCN(c2cccc3c2C(=O)N(Cc2cccs2)C3=O)CC1 (centres unmarked) [UNC10245397A, CC(N(C)C(=O)C1CCN(CC1)c1cccc2C(=O)N(Cc3cccs3)C(=O)c12)c1cc([nH]n1)-c1ccccc1] as the compound, how does the IC50 read?
Its IC50 is 24 µM.

With O=C(Nc1cccc2ncccc12)c1cccc(NS(=O)(=O)c2ccc3c(c2)OCCCO3)c1 [UNC10245399A, O=C(Nc1cccc2ncccc12)c1cccc(NS(=O)(=O)c2ccc3OCCCOc3c2)c1] as the compound, how does the IC50 read?
The IC50 was 59 µM.

For Cc1ccc(C)c(S(=O)(=O)N2CCN(C(=O)CSc3nnc(-c4ccc5c(c4)OCO5)n3-c3ccccc3)CC2)c1 [UNC10245404A, Cc1ccc(C)c(c1)S(=O)(=O)N1CCN(CC1)C(=O)CSc1nnc(-c2ccc3OCOc3c2)n1-c1ccccc1], which IC50 is on record?
Its IC50 is 14 µM.

Cc1noc(C)c1COc1cccc(C(=O)Nc2cccc(S(=O)(=O)Nc3cccc(C(F)(F)F)c3)c2)c1 [UNC10245406A, Cc1noc(C)c1COc1cccc(c1)C(=O)Nc1cccc(c1)S(=O)(=O)Nc1cccc(c1)C(F)(F)F] was tested. Which IC50 did it give?
The IC50 was 39 µM.

Which IC50 does the source give for COc1cccc(C(=O)N(CC(=O)Nc2ccc(N3CCN(C(=O)c4ccc(C)cc4)CC3)cc2)Cc2ccc(F)cc2)c1 [UNC10245410A, COc1cccc(c1)C(=O)N(CC(=O)Nc1ccc(cc1)N1CCN(CC1)C(=O)c1ccc(C)cc1)Cc1ccc(F)cc1] here?
The IC50 was 11 µM.

With CN(Cc1ccco1)C(=O)c1ccc(COc2ccc3c(c2)C(c2cccc(F)c2)N(C(=O)C2CC2)CC3)o1 (centres unmarked) [UNC10245413A, CN(Cc1ccco1)C(=O)c1ccc(COc2ccc3CCN(C(c4cccc(F)c4)c3c2)C(=O)C2CC2)o1] as the compound, how does the IC50 read?
The IC50 was 48 µM.

For CCOC(=O)c1cc(-c2ccc(N3CCN(C(=O)COc4ccccc4)CC3)cc2)n(-c2ccccc2OC)n1 [UNC10245416A, CCOC(=O)c1cc(-c2ccc(cc2)N2CCN(CC2)C(=O)COc2ccccc2)n(n1)-c1ccccc1OC], which IC50 is on record?
Its IC50 is 12 µM.

COc1cccc(CNC(=O)C2CCN(C(=O)[C@@H](Cc3ccccc3)NC(=O)COc3ccccc3)CC2)c1 [UNC10245418A, COc1cccc(CNC(=O)C2CCN(CC2)C(=O)[C@@H](Cc2ccccc2)NC(=O)COc2ccccc2)c1] was tested. Which IC50 did it give?
Its IC50 is 93 µM.

For COc1ccccc1N1CCN(C(=O)CCCc2nnc3n(CC(C)C)c(=O)c4sccc4n23)CC1 [UNC10245420A, COc1ccccc1N1CCN(CC1)C(=O)CCCc1nnc2n(CC(C)C)c(=O)c3sccc3n12], which IC50 is on record?
The IC50 was 87 µM.

Which IC50 does the source give for CCOc1ccccc1NC(=O)Nc1cccc(OCc2cc(=O)n3ccccc3n2)c1 [UNC10245432A, CCOc1ccccc1NC(=O)Nc1cccc(OCc2cc(=O)n3ccccc3n2)c1] here?
The IC50 was 43 µM.

How did the IC50 turn out when Cc1cc(NC(=O)CSc2nc3ccccc3c(=O)n2CC2CCC(C(=O)NCc3ccccc3Cl)CC2)n[nH]1 (centres unmarked) [UNC10245433A, Cc1cc(NC(=O)CSc2nc3ccccc3c(=O)n2CC2CCC(CC2)C(=O)NCc2ccccc2Cl)n[nH]1] was run?
Its IC50 is 8.8 µM.

With CC1Cc2ccccc2N1C(=O)CC1CCN(S(=O)(=O)c2ccc3c(c2)oc(=O)n3C)CC1 (centres unmarked) [UNC10245457A, CC1Cc2ccccc2N1C(=O)CC1CCN(CC1)S(=O)(=O)c1ccc2n(C)c(=O)oc2c1] as the compound, how does the IC50 read?
Its IC50 is 44 µM.

How did the IC50 turn out when COc1ccccc1OCCC1CCN(C(=O)C2CCN(S(=O)(=O)c3cccc4nonc34)CC2)C1 (centres unmarked) [UNC10245474A, COc1ccccc1OCCC1CCN(C1)C(=O)C1CCN(CC1)S(=O)(=O)c1cccc2nonc12] was run?
Its IC50 is 75 µM.

For COc1ccccc1OCCCn1cc(C=C2C(=O)NC(=O)N(Cc3ccco3)C2=O)c2ccccc21 [UNC10245533, COc1ccccc1OCCCn1cc(C=C2C(=O)NC(=O)N(Cc3ccco3)C2=O)c2ccccc12], which IC50 is on record?
Its IC50 is 9.8 µM.

For O=C1NC(=O)N(Cc2ccco2)C(=O)C1=Cc1cn(CCCOc2ccccc2)c2ccccc12 [UNC10245534, O=C1NC(=O)C(=Cc2cn(CCCOc3ccccc3)c3ccccc23)C(=O)N1Cc1ccco1], which IC50 is on record?
Its IC50 is 24 µM.

For Cc1cccc(OCCCn2cc(C=C3C(=O)NC(=O)N(Cc4ccco4)C3=O)c3ccccc32)c1 [UNC10245535, Cc1cccc(OCCCn2cc(C=C3C(=O)NC(=O)N(Cc4ccco4)C3=O)c3ccccc23)c1], which IC50 is on record?
Its IC50 is 6.1 µM.

O=C1NC(=O)N(Cc2ccco2)C(=O)C1=Cc1cn(CCCOc2ccccc2Cl)c2ccccc12 [UNC10245536, Clc1ccccc1OCCCn1cc(C=C2C(=O)NC(=O)N(Cc3ccco3)C2=O)c2ccccc12] was tested. Which IC50 did it give?
The IC50 was 12 µM.

For COc1ccccc1OCCn1cc(C=C2C(=O)NC(=O)N(Cc3ccco3)C2=O)c2ccccc21 [UNC10245537, COc1ccccc1OCCn1cc(C=C2C(=O)NC(=O)N(Cc3ccco3)C2=O)c2ccccc12], which IC50 is on record?
The IC50 was 22 µM.

With COc1ccc(OCCn2cc(C=C3C(=O)NC(=O)N(Cc4ccco4)C3=O)c3ccccc32)cc1 [UNC10245538, COc1ccc(OCCn2cc(C=C3C(=O)NC(=O)N(Cc4ccco4)C3=O)c3ccccc23)cc1] as the compound, how does the IC50 read?
The IC50 was 19 µM.

Which IC50 does the source give for COc1ccc(OCCCn2cc(C=C3C(=O)NC(=O)N(Cc4ccco4)C3=O)c3ccccc32)cc1 [UNC10245539, COc1ccc(OCCCn2cc(C=C3C(=O)NC(=O)N(Cc4ccco4)C3=O)c3ccccc23)cc1] here?
Its IC50 is 18 µM.

For Cc1cc(OCCCn2cc(C=C3C(=O)NC(=O)N(Cc4ccco4)C3=O)c3ccccc32)cc(C)c1Cl [UNC10245540, Cc1cc(OCCCn2cc(C=C3C(=O)NC(=O)N(Cc4ccco4)C3=O)c3ccccc23)cc(C)c1Cl], which IC50 is on record?
Its IC50 is 23 µM.

How did the IC50 turn out when Cc1cc(C)cc(OCCCn2cc(C=C3C(=O)NC(=O)N(Cc4ccco4)C3=O)c3ccccc32)c1 [UNC10245541, Cc1cc(C)cc(OCCCn2cc(C=C3C(=O)NC(=O)N(Cc4ccco4)C3=O)c3ccccc23)c1] was run?
Its IC50 is 4.3 µM.

For COc1cccc(OCCn2cc(C=C3C(=O)NC(=O)N(Cc4ccco4)C3=O)c3ccccc32)c1 [UNC10245542, COc1cccc(OCCn2cc(C=C3C(=O)NC(=O)N(Cc4ccco4)C3=O)c3ccccc23)c1], which IC50 is on record?
Its IC50 is 50 µM.
